Experimental data: patent US12616674B2, “Anti-fibrotic NEU3 inhibitor compounds and methods of use” (The Texas A&M University System, priority 2019, dated 2026)
“Also recorded” adds a separate entry of the source.

Key:
[1] = test system: C57BL/6 mice on regular or high fat diet; experiment: High fat diet C57BL/6 mice treated with intraperitoneal DANA; assay type: in vivo, mouse
Description: 12 week old male C57BL/6 mice (#000664; Jackson Laboratory, Farmington, CT) were fed standard rodent chow (15% kcal fat, Teklad 8604, Envigo, Madison WI) and 12-16 week old male C57BL/6 mice (#380050; Jackson) were fed a high fat diet (60% kcal fat, D12492 formula; Research Diets New Brunswick, NJ). Mice were placed on the specified diets for 6 weeks before the start of treatment. To determine if the sialidase inhibitor DANA (#252926-10MG, Millipore-Sigma, Burlington, MA) decreases high-fat diet induced weight gain, mice were treated every 48 hours with intraperitoneal injections of phosphate-buffered saline (PBS) or DANA at 10 mg/kg in PBS, formulated as 4 mg/ml in PBS. Mice were maintained on their specific diets and received injections every 48 hours for 5 weeks (35 days). Animals were housed with a 12-hour/12-hour light-dark cycle (lights on at 7 AM) with free access to food and water. All injections were performed between 9:00 and 11:00 AM. This protocol was done with specific approval of the Texas A&M University institutional animal care and use committee.
To determine the amount of steatosis (accumulation of fat in the cells of the liver), frozen sections were prepared by placing freshly isolated pieces of liver in Surgipath frozen section compound, freezing on dry ice, and storing at −80° C. 10-12 μm cryosections of liver were placed on glass slides and were stained with oil red O to detect the accumulation of lipids as described in Mehlem, A., et al., Imaging of neutral lipids by oil red O for analyzing the metabolic status in health and disease, Nat. Protoc., 2013. 8(6): p. 1149-54.
As in Example 9, mice were maintained on their specific diets and received injections of buffer or DANA every 48 hours for 5 weeks (35 days). Following euthanasia, liver tissue was removed, fixed, and then sectioned as described above.
This situation leads to elevated levels of glucose in the blood system, and following an increase in blood glucose (such as after a meal or an injection of glucose), the body takes longer than normal to reduce blood glucose levels. To determine if DANA could reduce blood glucose levels, on day 33 of the experiment described in […], mice were fasted for 16 hours starting at 5 PM. On day 34, mice received an IP injection of 1.5 g/kg glucose (Amresco, Solon, OH) formulated as 525 mg/ml in PBS. Blood glucose levels were measured before glucose administration (0 minutes), and at 20, 40, 60, 90, and 120 minutes after the injection using commercial blood glucose test strips (CVS Pharmacy, Woonsocket, RI).
Obesity is associated with increased size (weight) of many organs, including white fat and liver. To determine if the sialidase inhibitor DANA could prevent a high fat diet-induced increase in organ weights, at day 35 of the experiment described in Example 9, following euthanasia, organs including epididymal white adipose and inter-scapular brown adipose tissue, liver, spleen, lungs, and kidneys were weighed.

[2] = test system: NEU3 enzymic activity, hepatic steatosis and weight gain in mice; conditions: oral administration; cited from earlier work
[3] = molecular target: T1, recombinant human sialidase NEU3 (Homo sapiens, UniProt Q9UQ49); experiment: NEU3-catalyzed L-TGF-β1 activation (TGF-β1 release/concentration assay, active TGF-β1 ELISA); assay type: biochemical; conditions: recombinant human NEU3, L-TGF-β1, PBS pH 6.9, 2 hours 37° C.; read-out: IC50, inhibits human NEU3 in the TGF-β1 concentration (release) assay
T1 construct: purchased Origene TP316537
T1 sequence (Q9UQ49 1-428): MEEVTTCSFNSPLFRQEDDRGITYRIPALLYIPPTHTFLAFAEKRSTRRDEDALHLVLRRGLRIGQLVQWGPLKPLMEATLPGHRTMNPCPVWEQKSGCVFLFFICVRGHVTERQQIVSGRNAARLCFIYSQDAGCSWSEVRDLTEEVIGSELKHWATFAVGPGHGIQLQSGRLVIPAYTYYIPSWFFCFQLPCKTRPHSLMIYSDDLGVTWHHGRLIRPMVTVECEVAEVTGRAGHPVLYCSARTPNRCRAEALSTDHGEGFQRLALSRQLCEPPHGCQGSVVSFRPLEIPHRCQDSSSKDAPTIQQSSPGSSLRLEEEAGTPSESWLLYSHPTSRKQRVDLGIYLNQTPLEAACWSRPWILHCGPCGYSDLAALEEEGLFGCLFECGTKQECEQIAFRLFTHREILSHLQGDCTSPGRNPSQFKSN
Description: To determine if NEU3 can cause latent transforming growth factor-β1 (L-TGF-β1) to release active TGF-β1, 200 ng/ml recombinant human L-TGF-β1 (299-LT/CF, R&D Systems) was incubated with varying concentrations of recombinant human NEU3 (TP316537, Origene) in a total volume of 100 μl of PBS pH 6.9 in a 96-well microplate (651261, Greiner Bio-one, Monroe, NC). The microplates were covered with aluminum foil and incubated at 37° C. for 2 hours. Following incubation, the reaction mixtures were assayed using a TGF-β1 ELISA kit (DY240, R&D Systems) following the manufacturer's protocol with the exception that the reaction mixtures were not processed for acid treatment, so as to measure only active TGF-β1 and not total TGF-β1. The absorbance was read with a SynergyMX plate reader (BioTek, Winooski, VT).
To determine the ability of compounds 1-31 to inhibit human recombinant NEU3 in-vitro, compounds were dissolved in 5 ml water to 20 mM in 15 ml tubes (89039-664, VWR, Radnor, PA), with the exception that 4-hydroxypyridine-2-carboxylic acid, nicotinic acid, and 4-aminopicolinic acid were dissolved in 50 μl DMSO to 2 M, and this was then added to 4.95 ml of water to make a 20 mM stock, and O-(tetrahydro-2H-pyran-2yl) hydroxylamine and salicylic acid were dissolved in 50 μl methanol to 2 M, and this was then added to 4.95 ml of water to make a 20 mM stock. All stocks were stored at 4° C. and used within 2 weeks of preparation. A 10-fold dilution series of the compounds starting at 2 mM were made in PBS pH 6.9 in 1.7 ml clear microtubes (22-281, Genesee Scientific). 100 μl of diluted compound was added to the well of a 96 well plate and then 50 μl of 400 ng/ml recombinant human sialidase NEU3 (TP316537, Origene) in PBS pH 6.9 was added to each well (50 μl PBS pH 6.9 for the control), and the plate was incubated for 30 minutes at 37° C. 50 μl of 800 ng/ml L-TGF-β1 (299-LT/CF, R&D Systems) in PBS pH 6.9 was then added to the well. The plate was covered with aluminum foil and incubated for 2 hours at 37° C., and released active TGF-β1 was assayed as described above.

[4] = HFD mice, DANA vs control HFD, day 35, FIG. 19

CC(=O)N[C@@H]1C(O)C=C(C(=O)O)O[C@H]1[C@H](O)[C@H](O)CO (stereo partly shown) [Compound 1, DANA]
oil red O staining in the liver (neutral lipid accumulation) ([1]; HFD mice, DANA 10 mg/kg i.p. every 48 hours for 35 days, vs saline, FIG. 14): significant reduction
F4/80 positive cells in the liver ([1]; HFD mice, DANA i.p. every 48 hours for 35 days, vs saline, FIG. 15): significant reduction
high fat diet induced weight gain ([1]; HFD mice, DANA i.p. injections vs PBS, after 21 days of treatment, FIG. 16): prevents weight gain; also recorded: significant reduction in weight gain
total glucose levels (AUC over 120 minutes) ([1]; HFD mice, DANA vs HFD control, FIG. 18): significantly lower
blood glucose levels after glucose injection ([1]; HFD mice, DANA vs control HFD, at 60 minutes after 1.5 g/kg IP glucose, FIG. 17): significantly lower
brown fat weight (percent of body weight) [1, 4]: significantly lower
white fat weight (percent of body weight) [1, 4]: significantly lower
weight of mice on regular chow ([1]; regular chow mice, DANA vs PBS injections): no effect; also recorded: no significant differences in weight
organ weights ([1]; regular chow mice, DANA vs PBS, day 35, FIG. 19): no significant differences in any organ weights
oil red O staining in the liver ([1]; regular diet mice, DANA 10 mg/kg i.p. every 48 hours for 35 days, vs saline): no significant difference
F4/80 staining in the liver ([1]; regular diet mice, DANA i.p. every 48 hours for 35 days, vs saline): no significant difference
fasting glucose levels or glucose levels after the glucose injection ([1]; standard chow mice, DANA vs PBS, FIG. 17): no significant differences
HFD-induced weight gain [2]: attenuated
NEU3 enzymic activity in the small intestine [2]: inhibited
hepatic steatosis [2]: attenuated
IC50 [3]: 250 µM
